Converted amounts (≈) assume the structure as drawn.
What was measured:
[1] = system: C. albicans ATCC 90029; experiment: MIC assay, serial two-fold microdilution in liquid medium; assay type: cell-based; conditions: Candida albicans, ATCC90029; C. albicans ATCC 90029, planktonic, 37 °C, 24 h; read-out: minimum inhibitory concentration (MIC)
Protocol: (§1) The inhibitory activity of the obtained compounds has been assessed on five microbial strains, respectively: E. coli ATCC 25922, P. aeruginosa ATCC 27853, S. aureus ATCC 25923, E. faecalis ATCC 29212 and C. albicans ATCC 90029, in a planktonic and adherent growth state.
The MIC assay was performed by the serial two-fold microdilutions in a liquid medium, using a concentration range from 5 to 0.009 mg/mL and microbial suspensions of 0.5 MacFarland density. The wells containing only the microbial culture served as positive control and those containing the sterile culture medium as the negative control. The MIC values were read after incubation at 37 °C for 24 h.

[2] = system: E. faecalis ATCC 29212; experiment: Anti-biofilm activity assay, purple violet microtiter method; assay type: cell-based; conditions: E. faecalis ATCC 29212 biofilm
Protocol: as §1
The anti-biofilm activity assay was performed by the purple violet microtiter method, as previously described, allowing us to determine the minimal biofilm inhibitory concentration (MBEC). The same range of concentrations, as in the MIC assay, i.e., from 5 to 0.009 mg/mL has been tested.

[3] = system: S. aureus ATCC 25923; experiment: Flow cytometry (FCM) membrane depolarization, DiBAC4(3); assay type: cell-based, Staphylococcus aureus; conditions: for staining index value (SI): S. aureus ATCC 25923, DiBAC4, 18–24 h
Protocol: (§2) The investigation of potential mechanisms of antimicrobial action by flow cytometry (FCM) was performed on microbial cultures obtained after 18–24 h of microbial cell incubation in the presence of subinhibitory concentrations of the analyzed compounds. Thus, microbial suspensions with a density of approximately 10^6 CFU/mL were prepared in sterile saline phosphate buffer from exponentially growing microbial cultures, obtained on a solid culture medium. Subinhibitory concentrations of the compounds were prepared in Muller–Hinton liquid culture medium and inoculated with an equal amount of microbial suspension and incubated for 18–24 h at 37 °C.
(§3) Microbial suspensions inoculated in a liquid medium were used as growth control. After incubation, the DiBAC4 fluorochrome solution [bis-(1,3-dibutylbarbituric acid) trimethinoxonol] Invitrogen/Life Technologies, Carlsbad, was added (0.5 μg/mL).
(§4) Fluorescence intensity (FI) was measured with an Accuri C6 plus flow cytometer in the FITC fluorescence channel. Growth control was used to locate the microbial cell population for fluorescence measurements. DiBAC4 dye was used to detect changes in the microbial membrane potential. […] A twofold increased fluorescence intensity (median fluorescence intensity = MFI) was considered to correspond to the depolarized microbial cells. For each subinhibitory concentration, a coloring index (CI) was calculated which represents the ratio of fluorescence intensity (FI) of treated versus untreated cells.

[4] = system: E. coli ATCC 25922; experiment: as above; assay type: cell-based, Escherichia coli; conditions: DiBAC4, 18–24 h
Protocol: as §2, §3, §4

[5] = system: C. albicans ATCC 90029; experiment: as above; assay type: cell-based, Candida albicans; conditions: subinhibitory concentration tested 2.5 mg/mL, DiBAC4, 18–24 h
Protocol: as §2, §3, §4

[6] = system: Artemia franciscana Kellog nauplii; experiment: Toxicity on the Artemia franciscana Kellog crustacean species (lethality of nauplii); assay type: in vivo; conditions: tested concentrations 6.2–100 μg/mL (solubility limit), 24 h
Protocol: The oocysts (Great Salt Lake, USA) provided by S.K. Trading were grown on artificial seawater medium (Coral Marine, Grotech), dissolved in distilled water with a few minutes of sonication, at 30 g/L concentration. The test was carried out in a 24-well plate, using three replicates. Because of their low solubility, the compounds 1a–d were suspended in the culture medium using sodium alginate (0.045%) (also used a negative control), the testing being carried out at the solubility limit. The concentrations 100, 50, 25, 12.5 and 6.2 μg/mL used for each substance were obtained by successive dilutions starting from the initial suspension. Between 10 and 15 nauplii per well were collected and placed in contact with the test suspensions (1.5 mL/well). All nauplii, dead or alive, were counted and recorded within 24 h of being placed in contact with the tested suspensions. The non-linear modeling of the concentration-lethality relationship was achieved through a four-parameter logistics model (4PL), implemented in several robust variants for estimating parameters in the R package “dr4pl” [78].

[7] = Scavenger activity towards DPPH free radical; assay type: biochemical; conditions: 30 min; for IC50: linear regression over 25–1000 μM, mean ± SD of three, read-out: IC50 by means of DPPH assay
Protocol: The DPPH (Sigma-Aldrich, Darmstadt, Germany) solution of 0.1 mM concentration was obtained by dissolving 0.0039 g of free radical in 100 mL ethanol, in a volumetric flask. For all determinations, the DPPH solution was freshly prepared and kept in the dark. Ethanol has been chosen since tested compounds were dissolved in ethanol: DMSO = 99:1 (v/v) mixture.
The analyzed compounds were dissolved in 25 mL of ethanol: DMSO = 99:1 (v/v) mixture in a final concentration of 1000 μM (stock solution), from which several concentrations of 25 μM, 50 μM, 75 μM, 100 μM, 250 μM and 500 μM were obtained by successive dilutions.
The determination of the antioxidant activity was based on the Ohnishi M et al. method, quoted by Germano M.P. et al..
[…] The samples were kept at rest in the dark for 30 min [79, 81]. Ethanol was used as a blank in order to measure the absorbance at 515 nm (Jasco V-530 spectrophotometer, Jasco, Japan).
The following formula was used to determine DPPH free radical scavenger activity (%): Inhibition %=Acontrol−Asample/Acontrol×100 where, A = absorbance of the 0.1 mM DPPH solution in the absence (control)/presence (sample) of tested compounds after 30 min.
(§5) For both the above-mentioned methods, the antioxidant activity was expressed as IC50 values (μM) which represent the concentration of each compound for which the scavenging activity of free radicals is 50%. […]

[8] = Scavenger activity towards ABTS•+ free radical; assay type: biochemical; conditions: 6 min; for IC50: linear regression over 25–1000 μM, mean ± SD of three, read-out: IC50 by means of ABTS•+ assay
Protocol: The method according to Re R. et al. was used to evaluate the scavenger capacity of the free radical.
The ABTS^•+ free radical resulted from the reaction between 2,2′-azinobis-(3-ethylbenzothiazoline-6-sulfonic acid) diammonium salt (7.4 mM) (solution 1) (Sigma-Aldrich, Germany) and potassium persulfate (2.6 mM) (solution 2) (Roth, Germany).
In order to obtain the ABTS^•+ free radical reagent, equal volumes of solutions 1 and 2 were mixed for 16 h. The obtained reagent was kept in the dark; 1 mL of the obtained solution was brought to a 50 mL volumetric flask and diluted with ethanol so that the absorbance at λ = 734 nm would be 0.700 ± 0.02.
The tested compounds were dissolved and diluted similar to the previous antioxidant assay. […]
The following formula was used for the calculation of the ABTS^•+ free radical scavenger activity (%) Inhibition %=Abst=0min−Abst=6min/Abst=0min×100 where: Abst = ABTS^•+ solution absorbance in the absence (0 min)/presence (6 min) of the tested compounds.
as §5

[9] = subinhibitory concentration tested 2.5 mg/mL
[10] = subinhibitory concentration tested 1.25 mg/mL

| SMILES | MIC [1] [µg/mL] | minimum biofilm inhibitory concentration (MBIC) [2] [mg/mL] | staining index value (SI) [3, 9] | staining index value (SI) [4, 10] | staining index value (SI) [5] | toxicity (in words) [6] | DPPH free radical scavenger capacity ([7]; at 25 μM) [%] | DPPH free radical scavenger capacity ([7]; at 1000 μM) [%] | IC50 [7] [mM] | IC50 [8] [mM] | staining index value (SI) [4, 9] | ABTS•+ free radical scavenger activity ([8]; at 1000 μM) [%] | changes in the membrane potential ([3]; S. aureus ATCC 25923, subinhibitory concentration) | ABTS•+ free radical scavenger activity ([8]; at 25 μM) [%] | staining index value (SI) [3, 10] |
| --- | --- | --- | --- | --- | --- | --- | --- | --- | --- | --- | --- | --- | --- | --- | --- |
| O=C(Nc1ccccc1)ON=C1c2ccccc2-c2ccccc21 [Compound 1a, 9-(phenylcarbamoyloxymino)fluoren] | 2500 (≈ 7.95 mM) | 1.25 | 3.5 | 80.7 | 4.94 | not toxic | 12.66 | 19.81 | 5.7352 ± 8.28e-05 | 9.8854 ± 0.000251 | – | – | – | – | – |
| Cc1cccc(NC(=O)ON=C2c3ccccc3-c3ccccc32)c1 [Compound 1b, 9-((3-methyl-phenyl)carbamoyloximino)fluoren] | 5000 (≈ 15.2 mM) | 1.25 | 8.17 | – | 2.82 | not toxic | – | 16.29 | 12.263 ± 5.74e-05 | 9.3794 ± 0.00102 | 10.2 | 26.60 | – | – | – |
| O=C(Nc1cccc(Cl)c1)ON=C1c2ccccc2-c2ccccc21 [Compound 1c, 9-((3-chloro-phenyl)carbamoyloxymino)fluoren] | 5000 (≈ 14.3 mM) | 0.312 | 0.19 | 3.2 | – | not toxic | – | 24.64 | 5.208 ± 0.000124 | 18.2 | – | – | did not cause changes | 12.53 | – |
| O=C(Nc1ccc(Cl)c(Cl)c1)ON=C1c2ccccc2-c2ccccc21 [Compound 1d, 9-((3,4-dichloro-phenyl)carbamoyloxymino)fluoren] | 5000 (≈ 13 mM) | 1.25 | – | 173.3 | 20.21 | moderate toxicity | – | – | – | – | – | – | – | – | 4.2 |

— publication PMC10138554, “Insights into the Microbicidal, Antibiofilm, Antioxidant and Toxicity Profile of New O-Aryl-Carbamoyl-Oxymino-Fluorene Derivatives” (International Journal of Molecular Sciences, 2023)
